Data as given in article PMC11078746 (Nature, 2024).

Tests used:
[1] = system: WRN protein in MSI and MSS cells; experiment: WRN degradation (immunoblot, ELISA); assay type: cell-based, human
Experimental: A list of all of the antibodies is provided in Supplementary Table 2. […] The plates were washed in PBS and 200 µl per well of blocking reagent added (PBS, 0.05% Tween-20, 5% skimmed milk), and the plates were incubated for a minimum of 2 h at room temperature. […] The plates were then washed and 50 µl of secondary antibody per well diluted in blocking buffer was added and the plates were incubated overnight at 4 °C. The next day, 50 µl of tertiary antibody was added per well buffer and the plates were incubated for 2 h at room temperature. […] The plates were shaken and luminescence was detected immediately on the Synergy HT microplate reader.

[2] = target: T1, WRN D1D2RH (Asn517–Pro1238) (Homo sapiens, UniProt Q14191); experiment: Cy5-ATPγS binding assay using TR-FRET (ATP binding)
T1 construct: 10 nM WRN D1D2RH (protein construct (Asn517–Pro1238)); His tag (N, cleaved yes); ZZ tag (N, cleaved yes); made in house; host or cells: Sf21 insect cells (baculovirus)
Experimental: A ratio of F665 over F620 was then calculated to determine the FRET efficiency in each well. This assay protocol was used during hit optimization to build the initial structure–activity relationship and was also adapted to 1,536-well plates for screening purposes.

[3] = target: T1, WRN D1D2RH (Asn517–Pro1238); experiment: ATPase activity analysis, ADP-Glo; assay type: biochemical
Experimental: (§1) We used an ADP-Glo assay kit (Promega) to monitor ATP hydrolysis. A 45-oligonucleotide with the following sequence: […], referred to as FLAP26, as described previously[45] was purchased from IDT (Integrated DNA Technologies) and used as a DNA substrate. […] The reaction was started by addition of 2.5 μl of ssDNA substrate at 0.4 nM and incubated for 30 min at room temperature. The reaction was stopped with the addition of 5 μl of the first ADP-Glo reagent and incubated for 1 h to remove the excess amount of ATP. Then, 10 μl of ATP detection reagent was added and incubated for an additional hour before reading. The luminescence output was recorded using the Pherastar reader, with a 5 min delay before reading. Each concentration of compounds was tested in duplicates in the assay plate. The compound potency (IC50 value) was determined using custom software (Novartis Helios software application) with a four-parameter sigmoid Hill-curve model. After normalization of activity values for the wells to percentage inhibition (percentage inhibition = [(high control activity − sample activity)/(high control activity − low control activity)] × 100), IC50 fitting was performed from the duplicate determinations present on each plate.

[4] = logD / logP; assay type: physicochemical; details: 1-octanol/water, pH 7.4, 1-octanol and water at pH 7.4
[5] = MDCK LE permeability; assay type: in vitro ADME, canine; details: dog, Fig. 1b
[6] = Rat PK; assay type: in vivo
Experimental: PK parameters were determined by non-compartmental analysis. Intravenous bolus studies in mouse, rat and dog were performed at 1, 1 and 0.1 mg per kg respectively (Extended Data Table 1).

[7] = target: T2, RecQ5 (Homo sapiens, UniProt O94762); experiment: RecQ selectivity ATPase assay; assay type: biochemical
T2 construct: Human RecQ5-D1D2 (UniProt: O94762, Asp11–Trp453); His tag (N); made in house; host or cells: E. coli BL21(DE3), by the 'analogous procedure'
Experimental: (§2) DNA sequence allowing expression of human BLM-D1D2RH (UniProt P54132: Lys640–Gly1298) fused at the amino-terminal end to His tag followed by TEV-cleavage site, was inserted into a pET-derived vector. Protein expression was performed in BL21(DE3) cells after IPTG induction. Cells were collected and resuspended in lysis buffer (50 mM NaH2PO4, 300 mM NaCl, 1 mM TCEP, 20 mM imidazole, pH 8.0) supplemented with 2 mM MgCl2, benzonase and 0.5 mM AEBSF. Cells were lysed with an Emulsiflex C3 homogenizer. After ultracentrifugation, the lysate was loaded onto a HisTrap HP column. Bound protein was eluted with an imidazole gradient in lysis buffer. The amino-terminal tag was cleaved with TEV protease. Cleaved protein was loaded on Resource S ion-exchange column and eluted with a NaCl gradient in IEX buffer (20 mM Tris, 1 mM TCEP, 10% glycerol, 20 mM NaCl, pH 7.4). As a final step, BLM-D1D2RH protein was concentrated and loaded onto the Superdex 75 gel-filtration column pre-equilibrated with SEC buffer (50 mM Tris, 150 mM NaCl, 10% glycerol, pH 7.4). Eluted target protein was concentrated and frozen on dry ice. An analogous procedure was used for the expression and purification of human RecQ1-D1D2 (UniProt: P46063, Asp62–Ser482) and Human RecQ5-D1D2 (UniProt: O94762, Asp11–Trp453) proteins.
as §1
(§3) The same ATPase assay protocol was used with the three other RecQ protein constructs to assess the selectivity over WRN. Time-course experiments were performed to determine the best enzymatic assay conditions for each RecQ protein. The experiments were run as described above with 10 nM RecQ1 protein construct with 10 nM ssDNA substrate, 2 nM BLM protein construct with 0.2 nM ssDNA substrate and 0.5 nM RecQ5 protein construct with 2 nM ssDNA substrate, respectively.

[8] = target: T3, RecQ1 (Homo sapiens, UniProt P46063); experiment: RecQ selectivity ATPase assay; assay type: biochemical
T3 construct: human RecQ1-D1D2 (UniProt: P46063, Asp62–Ser482); His tag (N); made in house; host or cells: E. coli BL21(DE3), by the 'analogous procedure'
Experimental: as §2, §1, §3

[9] = target: T4, WRN D1D2 C727S (Homo sapiens, UniProt Q14191, C727S); experiment: ATPase assay; details: read-out: Biochemical IC50 ATPase WRN D1D2 C727S
T4 construct: the minimal D1–D2 helicase core (WRN 517–945)
Experimental: as §1

[10] = target: T5, WRN D1D2 C727A (Homo sapiens, UniProt Q14191, C727A); experiment: ATPase assay; details: read-out: Biochemical IC50 ATPase WRN D1D2 C727A
T5 construct: the minimal D1–D2 helicase core (WRN 517–945)
Experimental: as §1

[11] = target: T6, WRN D1D2 WT (WRN 517–945) (Homo sapiens, UniProt Q14191); experiment: ATPase assay; details: read-out: Biochemical IC50 ATPase WRN D1D2 WT
T6 construct: the minimal D1–D2 helicase core (WRN 517–945)
Experimental: as §1

[12] = target: T7, WRN full length (Homo sapiens, UniProt Q14191); experiment: ATPase assay; details: read-out: Biochemical IC50 ATPase WRN full length
T7 construct: ATPase WRN full length: 0.02; made in house
Experimental: as §1

[13] = target: T8, WRN (D1D2RH) (Homo sapiens, UniProt Q14191); experiment: Radioactive binding assay using an SPA (saturation binding); details: 10 nM WRN
T8 construct: N-terminal Avi Tag-WRN(Asn517–Pro1238)
Experimental: A total of 20 μl N-terminal Avi tag-WRN protein (Asn517-Pro1238) in 30 mM Tris pH 7.5, 30 mM NaCl, […], 0.02% BSA, 0.1% Pluronic F127, containing or not a fivefold higher concentration of dsDNA as compared to protein concentration, were incubated with 20 μl [^3H]-probe 6 (Extended Data Fig. 2f) for 1 h at room temperature. Then, 10 μl Streptavidin-coated PVT scintillation proximity assay (SPA) beads (Perkin Elmer, RPNQ0009) were added and the plate was read after 30 min in a TopCount luminescence reader (1 min, delay,1 min per well). The final assay concentrations were 10 nM WRN, 50 nM dsDNA (for the condition with dsDNA), a concentration range of radioligand as shown in the graphs and 50 μg per well of PVT SPA beads. The dsDNA was the same substrate as used in the DNA-unwinding assay (without labels).

[14] = system: SW48 xenografts; experiment: SW48 xenograft efficacy, HRO761, irinotecan and combination; assay type: in vivo, mouse; details: Irinotecan 60mg/kg
Experimental: All animal studies were conducted in accordance with ethics and procedures covered by permit BS-2275 and BS-1975 issued by the Kantonales Veterinäramt Basel-Stadt and in strict adherence to guidelines of the Eidgenössisches Tierschutzgesetz and the Eidgenössische Tierschutzverordnung, Switzerland. All animal studies were approved by the internal ethics committee. All animals had access to food and water ad libitum and were identified with transponders. They were housed in a specific-pathogen-free facility in IVC racks under a 12 h–12 h light–dark cycle. To establish cell-line-derived xenograft models, 6–7-week-old female athymic nude (Crl:NU(NCr)-Foxn1^nu) or SCID-BEIGE (CB17.Cg-PrkdcscidLystbg-J/Crl) mice from Charles River were engrafted subcutaneously with 5 million tumour cells in HBSS (H6648, Sigma-Aldrich). For SNU-407, Lovo, IM95, RL95.2, Ishikawa and IGROV-1, the cells were concentrated in 50% Matrigel (354234, Corning). Patient-derived xenografts were induced and expanded by transplantation as previously described. […] For the efficacy experiment, mice were randomized into groups (n = 5–6) for a mean tumour size of 100–150 mm^3. […] Blood samples were collected on day 7 and 91. […] Tumour responses are reported with the measures of tumour volumes from the treatment start. […] Animals were randomized (n = 3) and tumour samples were collected at 0, 1, 4, 8 and 24 h on the first day and then collected 4 h after the last treatment on day 3, 8, 10, 14 (including a 24 h timepoint), 17 and 21. Tumours were excised, weighed, either frozen in liquid nitrogen and cryogenic dry pulverized with the CryoPrep system (model CP-02, Covaris) or processed to FFPE after fixation. […] On day 12, blood samples were collected for PK analysis. On the last day (3 h after the last treatment), tumours were excised, weighed, frozen in liquid nitrogen and cryogenic dry pulverized for PD analysis.

[15] = author rebuttal, compound numbers of an earlier manuscript version, read-out: Cy5-ATPγS binding assay in TR-FRET - IC50

T1 sequence (Q14191 517-1238): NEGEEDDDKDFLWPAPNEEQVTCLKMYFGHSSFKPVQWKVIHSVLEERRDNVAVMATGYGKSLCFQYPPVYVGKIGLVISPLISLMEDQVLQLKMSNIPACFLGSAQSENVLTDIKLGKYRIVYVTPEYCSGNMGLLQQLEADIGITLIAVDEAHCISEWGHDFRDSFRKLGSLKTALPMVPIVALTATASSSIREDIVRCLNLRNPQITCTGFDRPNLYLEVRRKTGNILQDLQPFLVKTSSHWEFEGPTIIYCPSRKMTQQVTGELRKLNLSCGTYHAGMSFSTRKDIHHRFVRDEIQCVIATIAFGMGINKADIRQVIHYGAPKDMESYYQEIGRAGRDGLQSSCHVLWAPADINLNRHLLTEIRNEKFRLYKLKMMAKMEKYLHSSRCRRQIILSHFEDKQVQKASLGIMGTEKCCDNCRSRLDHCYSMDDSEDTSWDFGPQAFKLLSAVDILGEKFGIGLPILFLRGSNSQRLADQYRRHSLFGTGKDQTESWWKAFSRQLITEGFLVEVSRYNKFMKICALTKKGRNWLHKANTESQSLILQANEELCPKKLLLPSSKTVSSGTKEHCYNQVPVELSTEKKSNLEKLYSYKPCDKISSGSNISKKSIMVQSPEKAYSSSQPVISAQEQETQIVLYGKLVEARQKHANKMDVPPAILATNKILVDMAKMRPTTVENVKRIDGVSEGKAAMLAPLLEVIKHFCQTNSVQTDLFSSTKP
T8 sequence (Q14191 517-1238): as above
T6 sequence (Q14191 517-945): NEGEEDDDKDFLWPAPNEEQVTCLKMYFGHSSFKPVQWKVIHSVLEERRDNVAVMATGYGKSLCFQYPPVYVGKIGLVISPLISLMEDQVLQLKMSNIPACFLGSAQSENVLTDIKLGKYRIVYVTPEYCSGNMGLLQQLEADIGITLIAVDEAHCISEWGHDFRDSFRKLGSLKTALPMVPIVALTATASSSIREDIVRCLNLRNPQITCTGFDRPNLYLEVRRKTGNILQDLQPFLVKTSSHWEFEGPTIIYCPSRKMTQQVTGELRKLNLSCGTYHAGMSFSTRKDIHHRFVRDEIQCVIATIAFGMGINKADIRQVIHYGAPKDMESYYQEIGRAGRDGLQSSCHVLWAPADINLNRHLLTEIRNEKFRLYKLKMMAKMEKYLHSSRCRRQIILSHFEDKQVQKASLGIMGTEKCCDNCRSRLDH
T3 sequence (P46063 62-482): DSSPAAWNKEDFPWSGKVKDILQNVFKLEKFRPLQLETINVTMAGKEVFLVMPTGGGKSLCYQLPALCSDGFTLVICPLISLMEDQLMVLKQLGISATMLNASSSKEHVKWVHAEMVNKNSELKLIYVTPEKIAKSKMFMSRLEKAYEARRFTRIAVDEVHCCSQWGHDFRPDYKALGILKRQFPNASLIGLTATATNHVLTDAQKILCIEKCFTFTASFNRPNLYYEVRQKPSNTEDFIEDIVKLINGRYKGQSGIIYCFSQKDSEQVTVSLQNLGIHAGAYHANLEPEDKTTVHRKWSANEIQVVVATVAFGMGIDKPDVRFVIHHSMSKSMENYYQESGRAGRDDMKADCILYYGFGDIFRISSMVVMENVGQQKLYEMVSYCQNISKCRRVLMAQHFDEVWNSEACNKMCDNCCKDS
T7 sequence (Q14191 whole entry): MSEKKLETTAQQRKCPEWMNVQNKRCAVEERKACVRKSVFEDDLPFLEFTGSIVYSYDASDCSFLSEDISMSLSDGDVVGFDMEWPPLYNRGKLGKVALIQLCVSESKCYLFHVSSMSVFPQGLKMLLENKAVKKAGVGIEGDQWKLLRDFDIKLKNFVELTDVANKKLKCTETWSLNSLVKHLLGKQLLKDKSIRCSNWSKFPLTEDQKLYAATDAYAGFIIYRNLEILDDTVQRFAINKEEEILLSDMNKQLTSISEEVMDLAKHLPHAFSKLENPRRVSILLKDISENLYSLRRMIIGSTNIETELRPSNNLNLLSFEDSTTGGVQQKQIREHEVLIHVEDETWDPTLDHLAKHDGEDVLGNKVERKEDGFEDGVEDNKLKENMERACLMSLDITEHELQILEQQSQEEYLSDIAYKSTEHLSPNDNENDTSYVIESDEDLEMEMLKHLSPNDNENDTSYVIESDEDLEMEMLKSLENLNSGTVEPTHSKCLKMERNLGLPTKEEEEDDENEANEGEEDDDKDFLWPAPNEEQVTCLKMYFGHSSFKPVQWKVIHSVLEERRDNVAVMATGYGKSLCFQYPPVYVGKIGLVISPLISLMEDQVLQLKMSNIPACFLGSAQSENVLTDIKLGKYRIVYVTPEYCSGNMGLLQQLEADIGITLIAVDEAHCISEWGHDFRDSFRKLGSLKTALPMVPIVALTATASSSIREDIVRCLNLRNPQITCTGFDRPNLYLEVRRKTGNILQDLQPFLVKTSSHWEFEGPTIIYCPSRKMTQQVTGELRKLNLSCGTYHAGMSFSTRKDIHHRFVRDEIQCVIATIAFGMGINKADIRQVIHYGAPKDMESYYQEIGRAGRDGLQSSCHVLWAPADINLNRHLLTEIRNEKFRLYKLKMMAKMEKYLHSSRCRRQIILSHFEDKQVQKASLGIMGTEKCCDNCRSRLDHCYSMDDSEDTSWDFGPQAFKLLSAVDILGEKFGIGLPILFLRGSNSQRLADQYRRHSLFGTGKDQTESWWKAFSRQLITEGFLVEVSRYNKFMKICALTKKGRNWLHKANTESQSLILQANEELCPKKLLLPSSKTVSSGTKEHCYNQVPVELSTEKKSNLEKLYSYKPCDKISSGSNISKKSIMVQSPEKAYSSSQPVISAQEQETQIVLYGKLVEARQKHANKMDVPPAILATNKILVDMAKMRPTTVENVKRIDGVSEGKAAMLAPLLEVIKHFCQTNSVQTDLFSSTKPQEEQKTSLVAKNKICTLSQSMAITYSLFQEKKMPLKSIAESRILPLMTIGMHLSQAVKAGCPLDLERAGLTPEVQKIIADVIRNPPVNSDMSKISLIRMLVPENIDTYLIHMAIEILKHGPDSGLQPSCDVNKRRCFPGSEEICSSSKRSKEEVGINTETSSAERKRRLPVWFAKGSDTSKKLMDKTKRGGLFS
T5 sequence (Q14191 517-945 C727A): as the sequence (Q14191 517-945) above, with C211A counted along it
T2 sequence (O94762 11-453): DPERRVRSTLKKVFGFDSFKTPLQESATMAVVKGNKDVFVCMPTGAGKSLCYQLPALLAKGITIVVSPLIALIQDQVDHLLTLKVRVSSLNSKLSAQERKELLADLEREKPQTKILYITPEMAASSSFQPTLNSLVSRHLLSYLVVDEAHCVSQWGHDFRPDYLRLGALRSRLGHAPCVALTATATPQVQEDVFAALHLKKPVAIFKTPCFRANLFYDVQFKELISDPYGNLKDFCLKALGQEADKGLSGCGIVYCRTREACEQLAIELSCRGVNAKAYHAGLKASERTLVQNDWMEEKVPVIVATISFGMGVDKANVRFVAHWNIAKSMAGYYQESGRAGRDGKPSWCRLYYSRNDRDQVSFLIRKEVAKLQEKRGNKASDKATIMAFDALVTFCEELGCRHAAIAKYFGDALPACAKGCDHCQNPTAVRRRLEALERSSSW
T4 sequence (Q14191 517-945 C727S): as the sequence (Q14191 517-945) above, with C211S counted along it

Structure (SMILES): CC[C@@]1(O)C(=O)OCc2c1cc1n(c2=O)Cc2cc3ccccc3nc2-1 [camptothecin, reference compound]
- WRN degradation, dependence on MSI/MSS status [1]: irrespective of their MSI/MSS status

Structure (SMILES): Cc1cccc(NC(=O)Cn2c(C)cc(=O)n3nc(-c4cccs4)nc23)c1C [compound 1]
- IC50 ([2]; WRN D1D2RH, Fig. 1b, Extended Data Fig. 2b, read-out: ATP binding IC50): 3000 nM
- IC50 [2, 15]: 3300 nM
- IC50 ([3]; Fig. 1b, ATP concentration not given, read-out: ATPase IC50): 22000 nM

Structure (SMILES): Cc1c(N2CCN(C(=O)c3c(F)ccc(F)c3O)CC2)c(=O)n2nc(C3=CCOCC3)nc2n1CC(=O)Nc1ccc(C(F)(F)F)cc1 [compound 2]
- logD [4]: 3.7
- IC50 [2, 15]: 9 nM
- Papp [5]: 0.2 ×10⁻⁶ cm/s
- Rat PK, oral bioavailability (F) [6]: 0 % F
- IC50 [7]: > 100000 nM
- IC50 [8]: > 100000 nM

Structure (SMILES): CC(=O)N1CCN(c2c(C)n(CC(=O)Nc3ccc(Cl)cc3)c3nc(N4CCN(C(=O)OC(C)(C)C)CC4)nn3c2=O)CC1 [compound 5]
- IC50 [2, 15]: 13 nM
- IC50 [9]: 25000 nM
- IC50 [10]: 1100 nM
- IC50 [11]: 250 nM
- IC50 [12]: 110 nM
- IC50 ([3]; Extended Data Fig. 2b, read-out: Biochemical IC50 ATPase WRN D1D2RH): 270 nM
- mode of action with regard to DNA ([3]; KDNA determination, 0.5 nM WRN D1D2RH, 100 µM ATP): non-competitive mode of action

Structure (SMILES): [3H]c1cc(C(F)(F)F)cc([3H])c1NC(=O)Cn1c(C)c(N2CCN(C(C)=O)CC2)c(=O)n2nc(N3CCN(C(C)=O)CC3)nc12 [compound 6]
- Kd ([13]; in absence of dsDNA): 10 nM
- Kd ([13]; in presence of 50 nM dsDNA): 14 nM

Structure (SMILES): CCc1c2c(nc3ccc(OC(=O)N4CCC(N5CCCCC5)CC4)cc13)-c1cc3c(c(=O)n1C2)COC(=O)[C@]3(O)CC [irinotecan, reference compound]
- Mean TVol (mm3) ([14]; day 0 post 1st dose): 254.88 mm3
- Mean TVol (mm3) ([14]; day 4 post 1st dose): 329.29 mm3
- Mean TVol (mm3) ([14]; day 7 post 1st dose): 550.55 mm3
- Mean TVol (mm3) ([14]; day 11 post 1st dose): 635.45 mm3
- Mean TVol (mm3) ([14]; day 14 post 1st dose): 640.95 mm3
- Mean TVol (mm3) ([14]; day 18 post 1st dose): 669.98 mm3
- Mean TVol (mm3) ([14]; day 21 post 1st dose): 833.51 mm3
